Results on 2 compounds are retold here after the NIST ThermoML archive (doi:10.1016/j.fluid.2013.11.002).

± gives the expanded uncertainty stated by the source.

The nature of data set [1]: refractive index (Na D-line) (dimensionless); xn = mol fraction of the nth substance listed. Particulars: 101 kPa, Liquid, Standard Abbe refractometry.
Data set [2] can be described thus: refractive index (Na D-line) (dimensionless). Particulars: 101.33 kPa, Liquid, Standard Abbe refractometry.

What is called refractive index is the speed of light in vacuum divided by its phase velocity in the sample. As to `C1CCOC1` [tetrahydrofuran] + O, the refractive index in data set [1] (298.15 K, x1 = 0.01) came to 1.3371 ± 0.0005; in data set [1] (298.15 K, x1 = 0.02), 1.3409 ± 0.0005; in data set [1] (298.15 K, x1 = 0.03) it was 1.3448 ± 0.0005; in data set [1] (298.15 K, x1 = 0.04), 1.348 ± 0.0005; in data set [1] (298.15 K, x1 = 0.05), 1.351 ± 0.0005; in data set [1] (298.15 K, x1 = 0.06), 1.354 ± 0.0005. The refractive index turned out to be 1.4061 ± 0.0006 in data set [1] (298.15 K, x1 = 1); 1.3366 ± 0.0005 in data set [1] (303.15 K, x1 = 0.01); 1.3401 ± 0.0005 in data set [1] (303.15 K, x1 = 0.02); 1.3431 ± 0.0005 in data set [1] (303.15 K, x1 = 0.03); 1.347 ± 0.0005 in data set [1] (303.15 K, x1 = 0.04); 1.3496 ± 0.0005 in data set [1] (303.15 K, x1 = 0.05). The refractive index in data set [1] (303.15 K, x1 = 0.06) turned out to be 1.3521 ± 0.0005; in data set [1] (303.15 K, x1 = 1) it was 1.4041 ± 0.0006.
With `O` [water], the refractive index in data set [2] (298.15 K) was 1.3331 ± 0.0005; in data set [2] (303.15 K) it was 1.3326 ± 0.0005.
